We go through six compounds from patent US11358711B2, “Tetracyclic heterocycle compounds useful as HIV integrase inhibitors” (Merck Sharp & Dohme Corp., priority 2019, dated 2022).

This test relates to HIV-1 (NL4-3 strain). In words: Assay for inhibition of HIV replication (VIKING; MT4-gag-GFP reporter cell line). In kind it is cell-based. As to the method:
This assay is a kinetic assay that employs a reporter cell line (MT4-gag-GFP) to quantify the number of new cells infected in each round of replication.
MT4-GFP cells (250,000 cells/ml) were bulk-infected with HIV-1 (NL4-3 strain) at low multiplicity of infection (MOI) in RPMI cell culture medium+10% FBS for 24 hours. Cells were then washed once in RPMI cell culture medium+10% FBS and resuspended in RPMI cell culture medium+0% or 10% or 100% normal human serum (NHS). Test compounds were serial-diluted in DMSO on an ECHO® liquid handler. The infected MT4-GFP cells were added to a 384-well poly-D-lysine coated black plate with clear bottom in which the diluted test compounds were placed. The cells were seeded at 8,000 cells per well and the final DMSO concentration was 0.4%. The infected cells (Green GFP cells) were quantified at both 24 and 48 hours post incubation using Acumen eX3. Viral reproductive ratio (R0) was determined using the number of infected cells at 48 hours divided by the number of infected cells at 24 hours. Percent viral growth inhibition was calculated by [1−(R−Rtripledrug)/(RDMSO−Rtripledrug)]*100. Compound potency IP or IC50 was determined by a 4-parameter dose response curve analysis. In vitro potency in the cell-based assay in the abscence of normal human serum (NHS) and the presence of 100% NHS.

The mark [1] stands for this setting: Human immunodeficiency virus 1, NL43, MT4-GFP cells infected with HIV-1 NL4-3, 0% normal human serum (NHS), read-out: VIKING IP50 (nM) with 0% NHS.
Setting [2] is: Human immunodeficiency virus 1, NL43, MT4-GFP cells infected with HIV-1 NL4-3, 100% normal human serum (NHS), read-out: VIKING IP50 (nM) with 100% NHS.
Setting [3] is: MT4-GFP cells infected with HIV-1 NL4-3, 0% normal human serum (NHS), read-out: VIKING IP50 (nM) with 0% NHS.
The mark [4] stands for this setting: MT4-GFP cells infected with HIV-1 NL4-3, 100% normal human serum (NHS), read-out: VIKING IP50 (nM) with 100% NHS.

Read-outs that look alike come from different tables or passages of the source.

`C[C@@H]1CCOC2C3CCc4c(C(=O)NCc5ccc(F)cc5F)c(=O)c(O)c(n43)C(=O)N21` (stereo partly drawn) [Compound 60]: the IC50 is, setting by setting: under setting [1], 0.934 nM; under setting [2], 27.6 nM.

Take `C[C@H]1COC2C3CCc4c(C(=O)NCc5cccc(Cl)c5F)c(=O)c(O)c(n43)C(=O)N21` (stereo partly drawn) [Compound 30]: the IC50 came to 0.536 nM under setting [1] and 838 nM under setting [2].

Regarding `COC1CC2C3OCCN3C(=O)c3c(O)c(=O)c(C(=O)NCc4ccc(F)cc4F)c1n32` (stereo not drawn) [Compound 72], the IC50 runs as follows: under setting [3], 0.754 nM; under setting [4], 8000 nM.

As to `C[C@H]1CN(S(C)(=O)=O)C2C3CCc4c(C(=O)NCc5cccc(Cl)c5F)c(=O)c(O)c(n43)C(=O)N21` (stereo partly drawn) [Compound 116], the IC50 by setting is: under setting [3], 4.57 nM; under setting [4], 195 nM.

On to `O=C1c2c(O)c(=O)c(-c3cnn(Cc4ccc(F)cc4F)c3)c3n2C(CC3)C2OCCN12` (stereo not drawn) [Compound 46], for which the IC50 amounted to 34.5 nM under setting [1] and 222 nM under setting [2].

`CC1C2C3CCc4c(C(=O)NCc5cccc(Cl)c5F)c(=O)c(O)c(n43)C(=O)N2C[C@@H]1C` (stereo partly drawn) [Compound 102]: the IC50 under setting [3] was 1.05 nM and the IC50 under setting [4] came out at 579 nM.
